Test results: US20240018132A1, “5-HYDROXY-1,4-NAPHTHALENEDIONE FOR USE IN THE TREATMENT OF CANCER” (GODAVARI BIOREFINERIES LIMITED, priority 2020, published 2024)
Several values for one entry are separate records, joined by “and”; a condition that tells them apart may be missing. Equal values may be shown once. Read-outs that look alike come from different tables or passages of the source.

How the values were obtained:
PC3 [1] = test: Wound Healing Assay (WHA), prostate cancer cell line; format: cell-based; details: IC10 conc. of compound
Method: (§1) Wound Healing Assay (WHA) determines the ability of cancer stem cells to heal the wound formed in a confluent monolayer.
(§2) Procedure: 0.35×10^6 cells were plated in each well of 6 Tissue Culture well plates. The plate was incubated for 48 hrs at 37° C., 5% CO2. […] IC10 conc. of the respective compound was added into each well. The plates were incubated at 37° C., 5% CO2 and the width of scratch was measured at various time intervals such as 6, 24 and 48 hours. Average of 3 distances were taken for each time point using IS camera Measure. A plot of average width of scratch in micrometer was plotted against the time interval after treatment.

MDAMB231 [2] = test: In vitro sphere-forming assay (cancer stem cells), Mammosphere media; details: for 3D sphere count of MDAMB231: Mammosphere media, 2000 cells/well, n = 6 ± S.D; for viability at 0.0025 µM / viability at 0.025 µM / viability at 0.25 µM / viability at 2.5 µM / viability at 25 µM: Homo sapiens, MDA-MB-231, read-out: % Viability of spheres (MDAMB231)
Method: (§7) In Vitro Sphere-forming Assay: Sphere assay measures the ability of cancer stem cells (CSCs) to form spheres in specially designed serum-free medium.
(§8) Mammosphere Media Preparation (For 100 mL): 1 g methyl cellulose autoclaved with magnetic stirrer, 100 ml plain media (MEBM) was added and dissolved under magnetic stirring. After complete dissolution FGF-80 μL, EGF-40 μL, Penstrep-1 mL, Heparin-400 μL was added.
(§9) Procedure—The cells were trypsinised and made into single-cell suspension by passing through cell strainers (100 μl and 40 μl, respectively), The cells were diluted at a concentration of 2000 cells/100 μL and suspended in either Mammosphere (for breast cell lines) or Prostosphere (for prostate cell lines). 100 μL of this suspension was added into each well of 96-well suspension plates and incubated at 37° C., 5% CO2 for 24 hrs. Appropriate concentrations of the drugs (2 μL) were added into respective wells with 100 μL of stem cell culture medium. Plates were incubated at 37° C., 50 CO2 for 72 hrs. After incubation, 2.5 μL of the respective drug concentration and 50 μL of stem cell culture medium were added into each well and the plates were further incubated at 37° C., 50% CO2 for 72 hrs. 3 μL of the respective drug concentration was added with 50 μL of stem cell culture medium again after incubation and plates were reincubated for 72 hrs at 37° C., 50 CO2. Number of primary spheres formed for each concentration were counted. The spheres were converted to 0 viability of spheres compared to untreated (Growth Control with DMSO, GCD).

MDAMB231 [3] = test: In vitro antiproliferative assay (MTT assay), breast cancer cell line; format: cell-based; details: MTT assay, breast cancer MDAMB231, 48 hrs drug incubation
Method in brief: (§3)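 Compound exposure lasted 48 h at 37 °C in 5% CO2, following a 24 h attachment period; DMSO stocks were 0.1 M. Metabolic reduction of MTT (0.5 mg/ml, 4 h), solubilized in DMSO, gave viability, plotted as log % viability versus log drug concentration.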

PC3 [4] = test: Soft agar colony-formation assay, prostate cancer; format: cell-based; details: for IC50: Soft Agar Assay, 1 week, Alamar Blue; for anticancer activity in comparison with cisplatin, soft agar, prostate cancer cell line: FIG. 52, PC3
Method: (§4) The Soft Agar Colony-formation Assay is an anchorage-independent growth assay in soft agar, which is one of the most stringent assays for detecting malignant transformation of cells. For this assay, malignant cells are cultured with appropriate controls in soft agar medium for 1-2 weeks. Following this incubation period, formed colonies can either be analyzed morphologically using cell stain and quantifying the number of colonies formed.
(§5) Briefly, for Soft Agar Assay a mixture of 50 ul of 2× medium (taken appropriately as per cell line) and 50 ul of 1.2% Bacto Agar were plated on to each well of 96 well micro titer assay plate. 10 ul of cells (of specific plating efficiency pre standardized for respective cell line) were mixed with 20 ul of 2× medium and 30 ul of 0.8% of Bacto Agar and 1.6 ul of drug (of appropriate concentration) in a vial and transferred to the solidified pre layers of the assay plates. The cells were then allowed to grow and form colonies at 37° C. and 5% CO2 for 1 week. An intermittent feeding with 50 ul of appropriate 2× medium was performed after 3 days of experimental set up. 16 ul of Alamar Blue (1.5 mg/ml) was then added to all the wells to quantify the developed colonies. The plates were incubated for 24 hrs at 37° C. Absorbance was then measured at 630 nm. XY graph of log Percent viability was then plotted against log drug concentration.
(§6) Following plating efficiencies were standardized for Soft Agar Assay: […]

MDAMB231 [5] = test: Wound Healing Assay (WHA), breast cancer cell line; format: cell-based; details: IC10 conc. of compound
Method: as §1, §2

PC3 [6] = test: In vitro antiproliferative assay (MTT assay), prostate cancer cell line; format: cell-based; details: MTT assay, prostate cancer PC3, 48 hrs drug incubation
Method in brief: as §3

[7] = tested on: Aldehyde dehydrogenase (ALDH); test: Aldehyde Dehydrogenase (ALDH) assay, ELISA kit; format: cell-based; details: MDAMB231, 48 hrs
Text: Aldehyde dehydrogenases (ALDH) are a family of enzymes that catalyze the metabolism of exogenous and endogenous aldehydes, preventing the accumulation of potentially reactive and toxic aldehydes and their metabolites. In addition to their role in aldehyde metabolism, ALDH enzymes also play critical roles in other cellular processes such as cell proliferation, differentiation, and survival. ALDH also serves as a marker for certain stem cell populations including hematopoietic stem cells and certain cancer stem cells. ALDH concentration was determined by using ([…] Dx) ELISA kit by following protocol: • 1 Standards (50 μl)/sample (40 μl) were added to the respective wells, (except Blank). • 2. (10 μl) Antibody-Biotin conjugate was then added in each sample well (except Blank). • 3. (50 μl) of Horse Radish Peroxidase (HRP) Conjugate was then added to each well (except Blank). • 4. The plates were incubated for one hour at 37° C. in the incubator. • 5. Wash (4 times with wash buffer) and blot residual buffer by firmly tapping the plate on the absorbent paper. Wipe off any liquid from the bottom of the microtiter wells as any residue can interfere in the reading step. • 6. Add TMB substrate A (50 μl) and then TMB substrate B (50 μl) to each well including Blank as well. • 7. Incubate for 10 mins at 37° C. in dark. • 8. Add (50 μl) stop solution. Wells should turn from blue to yellow. • 9. Read absorbance at 450 nm. • 10 A X-Y graph of concentration vs optical density was plotted. ALDH concentration was calculated by substituting optical density values in the regression analysis equation.

MDAMB231 [8] = test: Soft agar colony-formation assay, breast cancer; format: cell-based; details: for IC50: Soft Agar Assay, 1 week, Alamar Blue; for anticancer activity in comparison with cisplatin, soft agar, breast cancer cell line: FIG. 51, MDAMB231
Method: as §4, §5, §6

Human lymphocytes = test: Lymphocyte assay (MTT on normal cells); format: cell-based; details: human peripheral blood lymphocytes, MTT procedure; for IC50: Lymphocyte
Method: Human lymphocytes were isolated from the peripheral blood. A pure population of lymphocytes was obtained based on differential centrifugation, in which diluted defibrinated blood was layered on a solution of sodium diatrizoate and polysucrose (HiSep LSM 1077) and centrifuged at low speeds for 30 mins.
Procedure: The separation of lymphocytes from fresh defibrinated blood was performed by the procedure described below: • 1. Diluted defibrinated fresh blood was overlaid gradually on (HiSeP LSM1077) and centrifuged at low speed for 30 mins. • 2. The lymphocyte layer (the buffy coat) was carefully removed in a new collection tube. • 3. The buffy coat was given another wash, by the diluent buffer Dulbecco's phosphate buffered saline (D.P.B.S) • 4. The supernatant was discarded and the pellet was resuspended in D.P.B.S. • 5. The viability of cells was checked by Haemocytometer. • 6. Cells with purity and viability of more than 95% were taken for the experiment. • 7. Purified lymphocytes were diluted at a concentration of 0.7 million/ml with sterile D.P.B.S and MTT procedure was performed exactly as described earlier.

PC3 [9] = test: In vitro sphere-forming assay (cancer stem cells), Prostosphere media; details: for viability at 0.0025 µM / viability at 0.025 µM / viability at 0.25 µM / viability at 2.5 µM / viability at 25 µM: Homo sapiens, PC-3, read-out: % Viability of spheres (PC3); for 3D sphere count of PC3: Prostosphere media, 2000 cells/well, n = 6 ± S.D
PC3 [10] = details: human, 216 h
MDAMB231 [11] = details: human, 216 h
Method: as §7, §8, §9

[12] = Homo sapiens, MDA-MB-231, 168 h

Row | Compound | IC50 (PC3 [6]) [µM] | viability at 0.0025 µM (MDAMB231 [2]) [%] | viability at 0.025 µM (MDAMB231 [2]) [%] | viability at 0.25 µM (MDAMB231 [2]) [%] | viability at 2.5 µM (MDAMB231 [2]) [%] | viability at 25 µM (MDAMB231 [2]) [%] | 3D sphere count of MDAMB231 (MDAMB231 [2]; drug 0.0025 uM) | 3D sphere count of MDAMB231 (MDAMB231 [2]; drug 0.025 uM) | 3D sphere count of MDAMB231 (MDAMB231 [2]; drug 0.25 uM) | 3D sphere count of MDAMB231 (MDAMB231 [2]; drug 2.5 uM) | 3D sphere count of MDAMB231 (MDAMB231 [2]; drug 25 uM) | IC50 (MDAMB231 [3]; Homo sapiens, MDA-MB-231, 48 h) [µM] | anticancer activity in comparison with cisplatin, soft agar, prostate cancer cell line (PC3 [4]) | IC50 (PC3 [4]; Homo sapiens, PC-3, 168 h) [µM] | viability at 0.0025 µM (PC3 [9]) [%] | 3D sphere count of PC3 (PC3 [9]; drug 0.0025 uM) | 3D sphere count of PC3 (PC3 [9]; drug 0.025 uM) | 3D sphere count of PC3 (PC3 [9]; drug 0.25 uM) | 3D sphere count of PC3 (PC3 [9]; drug 2.5 uM) | 3D sphere count of PC3 (PC3 [9]; drug 25 uM) | further results
1 | N.N.[Cl][Pt][Cl] [Cisplatin, reference compound] | 35.9 |  |  |  |  |  |  |  |  |  |  |  |  |  |  |  |  |  |  |  | % inhibition of Wound Healing for Prostate Cancer Cell line (PC3) after 48 hrs (PC3 [1]): 25.13%; 3D sphere count of MDAMB231 (MDAMB231 [2]; drug 250 uM): 28(±3) and 26(±3); IC50 (MDAMB231 [3]): 31 µM; IC50 (PC3 [4]): 34.4 µM; % inhibition of Wound Healing for Breast Cancer Cell line (MDAMB231) after 48 hrs (MDAMB231 [5]): 33.78%; % inhibition of ALDH on Breast Cancer Cell line (MDAMB231) after 48 hrs [7]: 26.45%; IC50 (MDAMB231 [8]): 35.2 µM
2 | COc1ccc(OC2=CC(=O)c3c(OCCN4CCOCC4)cccc3C2=O)cc1 [Formula 43, 5-(2-morpholinoethoxy)-2-(4-methoxyphenoxy) naphthalene-1,4-dione] | 0.5 | 82 | 61 | 46 | 33 | 21 | 82(±4) | 61(±3) | 46(±3) | 33(±4) | 21(±3) | 1.01 | higher anticancer activity in comparison with cisplatin | 0.415 | 75 | 75(±4) | 57(±5) | 46(±4) | 30(±4) | 21(±3) | % inhibition of Wound Healing for Prostate Cancer Cell line (PC3) after 48 hrs (PC3 [1]): 50.47%; IC50 (Human lymphocytes): 10.8 µM; % inhibition of Wound Healing for Breast Cancer Cell line (MDAMB231) after 48 hrs (MDAMB231 [5]): 53.3%; viability at 0.025 µM (PC3 [9]): 57%; viability at 0.25 µM (PC3 [9]): 46%; viability at 2.5 µM (PC3 [9]): 30%; viability at 25 µM (PC3 [9]): 21%; anticancer activity in comparison with cisplatin, soft agar, breast cancer cell line (MDAMB231 [8]): higher anticancer activity in comparison with cisplatin; IC50 (MDAMB231 [8]; [12]): 0.662 µM
3 | CCN(CC)CCNC(=O)COc1cccc2c1C(=O)C=C(Nc1ccc(OC)cc1)C2=O [Formula 72] |  | 84 | 67 | 48 | 33 | 19 | 60(±3) | 48(±3) | 34(±3) | 24(±2) | 14(±3) | 1.01 | higher anticancer activity in comparison with cisplatin | 0.6 | 81 | 65(±3) | 51(±3) | 37(±3) | 29(±2) | 13(±3) | IC50 (Human lymphocytes): 33 µM; IC50 (PC3 [6]; Homo sapiens, PC-3, 48 h): 0.743 µM; viability at 0.025 µM (PC3 [9]): 63%; viability at 0.25 µM (PC3 [9]): 46%; viability at 2.5 µM (PC3 [9]): 36%; viability at 25 µM (PC3 [9]): 16%; anticancer activity in comparison with cisplatin, soft agar, breast cancer cell line (MDAMB231 [8]): higher anticancer activity in comparison with cisplatin; IC50 (MDAMB231 [8]; [12]): 3.72 µM
4 | O=C1C=C(N2CCOCC2)C(=O)c2c(OCCN3CCOCC3)cccc21 [Formula 73] |  | 87 | 70 | 50 | 35 | 19 | 62(±4) | 50(±3) | 36(±4) | 25(±3) | 14(±3) | 2.18 | higher anticancer activity in comparison with cisplatin | 2.68 | 86 | 69(±2) | 55(±3) | 40(±3) | 29(±3) | 19(±3) | Activity on Lymphocytes (IC50) (Human lymphocytes): No activity; IC50 (PC3 [6]; Homo sapiens, PC-3, 48 h): 3.05 µM; viability at 0.025 µM (PC3 [9]): 68%; viability at 0.25 µM (PC3 [9]): 50%; viability at 2.5 µM (PC3 [9]): 36%; viability at 25 µM (PC3 [9]): 23%; anticancer activity in comparison with cisplatin, soft agar, breast cancer cell line (MDAMB231 [8]): higher anticancer activity in comparison with cisplatin; IC50 (MDAMB231 [8]; [12]): 3.77 µM
5 | COc1ccc(OC2=CC(=O)c3c(OCCN4CCOCC4)cccc3C2=O)cc1 [Formula 81] | 2.19 |  |  |  |  |  | 82(±4) | 61(±3) | 46(±3) | 33(±4) | 21(±3) |  |  |  |  | 75(±4) | 57(±5) | 46(±4) | 30(±4) | 21(±3) | IC50 (MDAMB231 [3]): 0.631 µM; % Viability of spheres (PC3) (PC3 [10]; 0.0025 uM): 75(±4) %; % Viability of spheres (PC3) (PC3 [10]; 0.025 uM): 57(±5) %; % Viability of spheres (PC3) (PC3 [10]; 0.25 uM): 46(±4) %; % Viability of spheres (PC3) (PC3 [10]; 2.5 uM): 30(±4) %; % Viability of spheres (PC3) (PC3 [10]; 25 uM): 21(±3) %; % Viability of spheres (MDAMB231) (MDAMB231 [11]; 0.0025 uM): 82(±4) %; % Viability of spheres (MDAMB231) (MDAMB231 [11]; 0.025 uM): 61(±3) %; % Viability of spheres (MDAMB231) (MDAMB231 [11]; 0.25 uM): 46(±3) %; % Viability of spheres (MDAMB231) (MDAMB231 [11]; 2.5 uM): 33(±4) %; % Viability of spheres (MDAMB231) (MDAMB231 [11]; 25 uM): 21(±3) %
